# Experimental data reported in patent publication US6974867B2, “Compositions and methods for treating neoplastic disease using chemotherapy and radiation sensitizers” (Chiron Corporation, priority 2000, dated 2005).
# Columns and labels:
# KIAA0175 mRNA = assay: Northern analysis of KIAA0175 mRNA after anti-sense oligonucleotide transfection; format: cell-based, human; conditions: HT1080 cells; for level of KIAA0175 mRNA expression: 100 nM oligonucleotide, Northern analysis; for KIAA0175 mRNA expression over time: 24 to 72 hours after oligonucleotide administration
# Method: HT 1080 cells express endogenous KIAA0175. These cells were transfected with either the FITC (negative control) or AKT1 (positive control) oligonucleotides), 1182, or 545 oligonucleotides. Briefly, 100 nM of the respective anti-sense oligonucleotide was mixed with lipitoid 1 transfection reagent (Huang et al., Chemistry and Biology 5(6):346-354 (1998)) in a 1:3 volume to volume ratio in OPTI-MEM (GibcoBRL). The mixture was added to the HT1080 cells in complete medium (EMEM, 10% heat inactivated fetal bovine serum (FBS), 2 mM L-Glutamine, 100 U/ml Penicillin, and […] Streptomycin) and the cells were incubated at 37° C. for ^˜4-5 hours in the presence of the anti-sense oligonucleotides before changing to fresh complete medium. Total RNA was extracted at day 1 or 24, 48, or 72 hours following transfection and mRNA levels of KIAA0175 were detected by Northern analysis. 20 μg of total RNA were subjected to electrophoresis on a denaturing agarose gel. RNA was transferred to nitrocellulose and KIAA0175 mRNA was detected by probing with a ^32P-labeled, 0.7 kb KIAA0175 cDNA fragment. To control for equal loading of individual lanes, the blot was stripped of the KIAA0175 probe and re-probed with a ^32P-labeled G3PDH cDNA probe obtained from Clontech.
# p53 [1] = assay: Western analysis of p53 protein level after anti-sense transfection, HT1080 cells; format: cell-based, human
# From the text: (§1) In separate experiments, either HT1080 or HCT116 cells expressing endogenous KIAA0175 and p53 were transfected with either FITC, KIAA0175 anti-sense oligonucleotides (i.e. 545 or 1182), or the corresponding reverse control oligonucleotides (RC or RC545). Total cell lysates were fractionated by SDS-polyacrylamide gel electrophoresis and transferred to nitrocellulose membranes. Specific proteins were detected by Western analysis using antibodies to either KIAA0175 (rabbit polyclonal antisera), p53, Erk2, or p21 antibodies as indicated. Antibodies against p53, p21 and Erk2 were obtained from Santa Cruz Biotechnology, Inc. (Santa Cruz, Calif.).
# [2] = test system: Breast Cancer Cell Line MDA-MB-231; assay: LDH cytotoxicity assay, breast cancer cell line; format: cell-based
# Method: (§2) The effect of KIAA0175 anti-sense molecules on cell sensitivity to chemotherapeutic drugs was tested on several cell lines using the lactate dehydrogenase (LDH) cytotoxicity assay essentially as follows:
# (§3) Day 1: Cells were seeded in 4 separate 96 well plates, typically 5000 cells/well and incubated at 37° C. and 5% CO2.
# (§4) Day 2: Cells were transfected with the KIA175-1182 and KIA175-545 anti-sense oligonucleotides (SEQ ID NOs:5 and 1, respectively) as well as the reverse complement controls, RC1182 and RC545 (SEQ ID NOs:6 and 2, respectively) essentially as described in Example 4, with and without drug. One plate (day 0) was left untransfected as a seeding control.
# (§5) The transfection was carried out using a lipid vehicle for delivery as described in WO 01/16306, hereby incorporated in its entirety. Briefly, the transfection used agents known as “lipitoids” and “cholesteroids”, described, for example, in PCT publications WO 01/16306, WO 98/06437 and WO 99/08711, based on U.S. Ser. No. 60/023,867, 60/054,743, and 09/132,808, which are also hereby incorporated by reference. These lipid-cationic peptoid conjugates are shown in these references to be effective reagents for the delivery of plasmid DNA to cells in vitro. Any of the carriers described in the above-referenced applications are suitable for use in transfection of the oligonucleotides described herein.
# (§6) Depending on the cell type, different lipid vehicles were used for different lengths of time for transfection. […] The transfection was carried out in complete medium and the final anti-sense oligonucleotide concentration was 300 nM per well. In the wells with drug, the drug was added to the culture at the beginning of the transfection.
# (§7) Starting on Day 3: Cells were recovered, 1 plate/day and release of LDH into the supernatant was measured using a kit from Roche according to manufacturer's instructions (Roche Diagnostics, Basel, Switzerland) (data labeled as day 1, 2, 3).
# (§8) For each sample, the data are expressed as a ratio of the level of LDH in wells containing cells transfected with anti-sense (AS) over the level of LDH in wells containing cells transfected with the reverse complement controls (RC) (ie:AS/RC). Thus, cells that become sensitized to drug will die and release LDH into the supernatant. An increase in the ratio signifies increased cell death and thus, higher levels of LDH in the media. A ratio higher than 1.5 signifies an effect of the anti-sense over the reverse complement control.
# HT1080 cells = assay: Cell cycle arrest upon γ-irradiation in transfected HT1080 cells; format: cell-based, human
# Method: Because both p53 and p21 are involved in the G1 to S phase cell cycle transition, the following experiments were performed in order to assess the effect of KIAA0175 anti-sense molecules on cell cycle regulation.
# Table 1 discloses the percentage of HT1080 cells in each stage of the cell cycle at various times following exposure to γ-irradiation. By 24 hours, cells were arrested in both the G1 and G2 phases as evidenced by the elevated percentage of cells in G0/G1 and G2/M phases as compared to the diminished percentage of cells in the S phase.
# Table 2 discloses the effect of KIAA0175 anti-sense molecules on γ-irradiation induced cell-cycle arrest. In cells transfected with anti-sense molecules, there was a reduction in the accumulation of cells in the G1 phase and a minimized reduction in the number of cells in the S phase as compared to cells transfected with a “reverse-control” anti-sense molecule as control.
# [3] = test system: Normal Breast Epithelial Cell Line 184B5; assay: LDH cytotoxicity assay, normal breast epithelial cell line; format: cell-based; conditions: for effect on cell death (LDH): 184B5 normal breast epithelial cell line
# Method: as §2, §3, §4, §5, §6, §7, §8
# p53 [4] = assay: Western analysis of p53 after γ-irradiation of transfected HT1080 cells; format: cell-based, human; conditions: 10 Gy γ-irradiation 24 hours after transfection
# Method: (§9) HT1080 cells expressing endogenous KIAA0175 were transfected with the KIAA0175 anti-sense oligonucleotide (1182) and the corresponding reverse control oligonucleotide (RC1182). After culture for 24-hours, the transfected cells were treated with 10 Gy of γ-irradiation. At various times after irradiation, cells were harvested and lysates prepared and subjected to SDS-PAGE. p53, Erk2, and p21 proteins were detected by Western analysis.
# KIAA0175 [5] = assay: Western analysis of KIAA0175 protein level after anti-sense transfection, HT1080 cells; format: cell-based, human
# From the text: as §1
# p21 = assay: Western analysis of p21 after γ-irradiation of transfected HT1080 cells; format: cell-based, human; conditions: 10 Gy γ-irradiation 24 hours after transfection
# Method: as §9
# HCT116 cells = assay: Colony (Crystal Violet) viability assay, sensitization to γ-irradiation and hydroxyurea; format: cell-based; conditions: 11 days of culture, compared to RC-treated cells
# Method: γ-irradiation treatment was performed as follows: On day one, HCT116 cells were transfected with either the KIAA0175 anti-sense molecule No. 545 (545) or with the 545 reverse control molecule (RC) and plated onto tissue-culture plates. On day three, one plate each of 545 and RC transfected cells were treated with γ-irradiation (2, 4 or 8 Gy) and cultured an additional 2 hours. The γ-irradiation treated cells as well as untreated control HCT116 cells were trypsinized, counted and seeded in triplicate onto 6-well tissue culture plates to a density of 1000 cells per well. After 11 days of culture, the cells were assayed for viability by staining with Crystal Violet. Total numbers of cell colonies were then counted.
# Hydroxyurea treatment was performed as follows: On day one, HCT116 cells were transfected with either the KIAA0175 anti-sense molecule No. 545 (545) or with the 545 reverse control molecule (RC) and plated onto tissue-culture plates. The following day (day two), one plate each of 545 and RC transfected cells were treated with hydroxyurea (1 mM final concentration) and cultured an additional 24 hours. On day three, the hydroxyurea treated cells as well as untreated control HCT116 cells were trypsinized, counted and seeded in triplicate onto 6-well tissue culture plates to a density of 1000 cells per well. […] Total numbers of cell colonies were then counted.
# KIAA0175 [6] = assay: KIAA0175 protein levels after exposure of cells to hydroxyurea (Western); conditions: recombinant HA-fusion protein or endogenously expressed
# [7] = MDA-MB-231, Day 0 (untransfected seeding control plate), 300 nM oligonucleotide
# [8] = MDA-MB-231, Day 1, 300 nM oligonucleotide, ratio higher than 1.5 signifies an effect
# [9] = MDA-MB-231, Day 2, 300 nM oligonucleotide, ratio higher than 1.5 signifies an effect
# [10] = MDA-MB-231, Day 3, 300 nM oligonucleotide, ratio higher than 1.5 signifies an effect
# [11] = 184B5, Day 0 (untransfected seeding control plate), 300 nM oligonucleotide
# [12] = 184B5, Day 1, 300 nM oligonucleotide, ratio higher than 1.5 signifies an effect
# [13] = 184B5, Day 2, 300 nM oligonucleotide, ratio higher than 1.5 signifies an effect
# [14] = 184B5, Day 3, 300 nM oligonucleotide, ratio higher than 1.5 signifies an effect
# [15] = MDA-MB-231 metastatic breast cancer cells
molecule,measurement,setting,value
"KIA175-736: KIAA0175 anti-sense oligonucleotide 5′-TGCCCATGCTCCAAACATCTGCCTC-3′ (listed as DNA, chemistry not given here)",level of KIAA0175 mRNA expression,KIAA0175 mRNA,effective in reducing the level of KIAA0175 mRNA expression
"KIA175-1182: KIAA0175 anti-sense oligonucleotide 5′-GGGTAGCACTGGCTTGTCCACAGGA-3′ (listed as DNA, chemistry not given here)","time of maximal anti-sense activity, p53 protein",p53 [1],48 h
same,LDH ratio AS/RC,[2]; [7],0.76
same,LDH ratio AS/RC,[2]; [8],2.04
same,LDH ratio AS/RC,[2]; [9],1.67
same,LDH ratio AS/RC,[2]; [10],1.52
same,percentage of cells in G0-G1,HT1080 cells; + γ-irradiation,39.3%
same,percentage of cells in G2-M,HT1080 cells; + γ-irradiation,42.17%
same,percentage of cells in S,HT1080 cells; + γ-irradiation,18.6%
same,percentage of cells in G0-G1,HT1080 cells; − γ-irradiation,47.4%
same,percentage of cells in G2-M,HT1080 cells; − γ-irradiation,26.8%
same,percentage of cells in S,HT1080 cells; − γ-irradiation,25.7%
same,LDH ratio AS/RC,[3]; [11],0.0000
same,LDH ratio AS/RC,[3]; [12],1.0223
same,LDH ratio AS/RC,[3]; [13],0.9065
same,LDH ratio AS/RC,[3]; [14],1.0663
same,effect on cell death (LDH),[3],neither KIA175-1182 nor KIA175-545 has an effect
same,γ-irradiation induced increase in p53 protein level,p53 [4],blocked the γ-irradiation induced increase in p53 protein level
same,"time of maximal anti-sense activity, KIAA0175 protein",KIAA0175 [5],48 h
same,p21 protein levels after γ-irradiation,p21,reduction of p21 protein levels
same,level of KIAA0175 mRNA expression,KIAA0175 mRNA,effective in reducing the level of KIAA0175 mRNA expression
same,KIAA0175 mRNA expression over time,KIAA0175 mRNA,increased gradually
"RC1182: reverse control oligonucleotide 5′-AGGACACCTGTTCGGTCACGATGGG-3′ (listed as DNA, chemistry not given here) [reference compound]",percentage of cells in G0-G1,HT1080 cells; + γ-irradiation,52.5%
same,percentage of cells in G2-M,HT1080 cells; + γ-irradiation,32.6%
same,percentage of cells in S,HT1080 cells; + γ-irradiation,14.9%
same,percentage of cells in G0-G1,HT1080 cells; − γ-irradiation,47.6%
same,percentage of cells in G2-M,HT1080 cells; − γ-irradiation,19.4%
same,percentage of cells in S,HT1080 cells; − γ-irradiation,33%
same,γ-irradiation induced increase in p53 protein level,p53 [4],increase in p53 protein level observed
same,level of KIAA0175 mRNA expression,KIAA0175 mRNA,ineffective in reducing KIAA0175 mRNA expression
"AKT: positive control oligonucleotide 5′-CCATAGTGAGGTTGCATCTGGTGCC-3′ (listed as DNA, chemistry not given here) [reference compound]",level of KIAA0175 mRNA expression,KIAA0175 mRNA,ineffective in reducing KIAA0175 mRNA expression
"KIA175-545: KIAA0175 anti-sense oligonucleotide 5′-GAGGTCCCTGTGAGCATAGCCCTGG-3′ (listed as DNA, chemistry not given here)",sensitivity to hydroxyurea (number of viable colonies),HCT116 cells; hydroxyurea 1 mM 24 hours,increased the sensitivity of HCT116 cells to hydroxyurea
same,sensitivity to γ-irradiation (number of viable colonies),"HCT116 cells; γ-irradiation 2, 4 or 8 Gy",increased the sensitivity of HCT116 cells to γ-irradiation
same,LDH ratio AS/RC,[2]; [7],0.84
same,LDH ratio AS/RC,[2]; [8],1.05
same,LDH ratio AS/RC,[2]; [9],1.37
same,LDH ratio AS/RC,[2]; [10],1.62
same,sensitization to the effects of Campthesin (CPT),[2]; [15],sensitizes
same,sensitization to the effects of Cisplatin,[2]; [15],sensitizes
same,sensitization to the effects of Doxorubicin (Doxo),[2]; [15],did not appear to sensitize
same,LDH ratio AS/RC,[3]; [11],0.0000
same,LDH ratio AS/RC,[3]; [12],1.1152
same,LDH ratio AS/RC,[3]; [13],1.1258
same,LDH ratio AS/RC,[3]; [14],1.2934
same,effect on cell death (LDH),[3],neither KIA175-1182 nor KIA175-545 has an effect
same,level of KIAA0175 mRNA expression,KIAA0175 mRNA,effective in reducing the level of KIAA0175 mRNA expression
same,KIAA0175 mRNA expression over time,KIAA0175 mRNA,increased gradually
NC(=O)NO [hydroxyurea],KIAA0175 protein levels,KIAA0175 [6],caused an increase in KIAA0175 protein levels
"FITC: negative control oligonucleotide 5′-TCTGCTGCTGTCGACAACGAGTGTC-3′ (FITC label, position not given here) [reference compound]",level of KIAA0175 mRNA expression,KIAA0175 mRNA,ineffective in reducing KIAA0175 mRNA expression
same,KIAA0175 mRNA expression over time,KIAA0175 mRNA,no effect
"RC736: reverse control oligonucleotide 5′-CTCCGTCTACAAACCTCGTACCCGT-3′ (listed as DNA, chemistry not given here) [reference compound]",level of KIAA0175 mRNA expression,KIAA0175 mRNA,ineffective in reducing KIAA0175 mRNA expression
